Data reported in US20240158348A1, “HERBICIDAL CYCLIC AMIDES N-SUBSTITUTED WITH A HALOALKYLSULFONYLANILIDE GROUP” (FMC Corporation, priority 2021, published 2024).

Experiments:
Type in all cases: in vivo
[1] = tested on: blackgrass (Alopecurus myosuroides); test: Test C preemergence, blackgrass; conditions: 0 is no effect, 100 is complete control
Procedure, shortened: (§1)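 Herbicidal effect was estimated visually on a 0–100 scale 10 or 12 days after spraying. Formulation: non-phytotoxic solvent mixture with surfactant. Timing: directed soil spray after sowing, or postemergence on seedlings bearing one or two leaves.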

[2] = tested on: corn (Zea mays); test: Test C preemergence, corn; conditions: 0 is no effect, 100 is complete control
Procedure, shortened: (§2)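 Pre: soil sprayed at seeding. Post: seedlings treated at 1–2 leaves (2–10 cm). Vehicle non-phytotoxic solvent mix with surfactant; loam–sand medium; greenhouse; visual injury read at 10 or 12 days, scale 0–100.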

[3] = tested on: foxtail, giant (giant foxtail, Setaria faberi); test: Test C preemergence, giant foxtail; conditions: 0 is no effect, 100 is complete control
Procedure, shortened: as §1

[4] = tested on: oat, wild (wild oat, Avena fatua); test: Test C preemergence, wild oat; conditions: 0 is no effect, 100 is complete control
Procedure, shortened: as §1

[5] = tested on: ragweed (common ragweed, Ambrosia artemisiifolia); test: Test C preemergence, ragweed; conditions: 0 is no effect, 100 is complete control
Procedure, shortened: as §2

[6] = tested on: wheat (Triticum aestivum); test: Test C preemergence, wheat; conditions: 0 is no effect, 100 is complete control
[7] = tested on: goosegrass (Eleusine indica); test: Test C postemergence, goosegrass; conditions: for Goosegrass plant response rating: 31 g ai/ha Postemergence, visual injury, 0 to 100 scale (0 no effect, 100 complete control); for Plant response rating (0 to 100 scale), Goosegrass: 125 g ai/ha Postemergence, 0 is no effect, 100 is complete control
Procedure, shortened: as §1

[8] = tested on: kochia (Bassia scoparia); test: Test C postemergence, kochia; conditions: for Kochia plant response rating: 31 g ai/ha Postemergence, visual injury, 0 to 100 scale (0 no effect, 100 complete control); for Plant response rating (0 to 100 scale), Kochia: 125 g ai/ha Postemergence, 0 is no effect, 100 is complete control
Procedure, shortened: as §1

[9] = tested on: barnyardgrass (Echinochloa crusgalli); test: Test D flooded paddy test, barnyardgrass; set-up: key: 0 = no effect, 100 = complete control; conditions: 250 g ai/ha, Flood; applied to paddy water at 2-leaf stage; visual rating after 13 days; scale 0 (no effect) to 100 (complete control)
Procedure, shortened: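 2-leaf plants; flood 3 cm over soil; cpd into paddy water; depth maintained; greenhouse 13 d; visual rating vs controls, 0 = no effect, 100 = complete control; dash = no result.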

SMILES	Plant response rating (0 to 100 scale), Blackgrass ([1]; 31 g ai/ha Preemergence)	Plant response rating (0 to 100 scale), Blackgrass ([1]; 125 g ai/ha Preemergence)	Plant response rating (0 to 100 scale), Corn ([2]; 31 g ai/ha Preemergence)	Plant response rating (0 to 100 scale), Corn ([2]; 125 g ai/ha Preemergence)	Plant response rating (0 to 100 scale), Foxtail, Giant ([3]; 31 g ai/ha Preemergence)	Plant response rating (0 to 100 scale), Foxtail, Giant ([3]; 125 g ai/ha Preemergence)	Plant response rating (0 to 100 scale), Oat, Wild ([4]; 31 g ai/ha Preemergence)	Plant response rating (0 to 100 scale), Oat, Wild ([4]; 125 g ai/ha Preemergence)	Plant response rating (0 to 100 scale), Ragweed ([5]; 31 g ai/ha Preemergence)	Plant response rating (0 to 100 scale), Ragweed ([5]; 125 g ai/ha Preemergence)	Plant response rating (0 to 100 scale), Wheat ([6]; 31 g ai/ha Preemergence)	Plant response rating (0 to 100 scale), Wheat ([6]; 125 g ai/ha Preemergence)	Goosegrass plant response rating [7]	Plant response rating (0 to 100 scale), Goosegrass [7]	Kochia plant response rating [8]	Plant response rating (0 to 100 scale), Kochia [8]	Plant response rating, Barnyardgrass [9]
Cc1c(NS(=O)(=O)C(F)(F)F)cc(N2CCCC(OC3CC3)C2=O)c(C)c1F (stereo not drawn) [Compound 35]	70	100	30	50	90	100	20	90	50	90	20	100	70	90	50	90	0
Cc1c(N2CCCC(OC3CCC3)C2=O)cc(N(COC(=O)C(C)(C)C)S(=O)(=O)C(F)(F)F)c(C)c1F (stereo not drawn) [Compound 39]	0	20	0	10	0	10	0	0	0	80	0	0	0	30	30	60	35
Cc1c(NS(=O)(=O)C(F)(F)F)cc(N2CCCC(OC3CCC3)C2=O)c(C)c1F (stereo not drawn) [Compound 36]	80	100	30	90	50	100	30	90	70	90	40	100	30	90	40	80	0
COC(=O)N(c1cc(N2CCC(OC3CC3)C2=O)c(C)cc1Cl)S(=O)(=O)C(F)(F)F (stereo not drawn) [Compound 40]	50	90	50	90	100	100	10	90	70	90	60	100	50	90	70	90	0
CC(=O)N(c1cc(N2CCC(OC3CC3)C2=O)c(C)cc1C)S(=O)(=O)C(F)(F)F (stereo not drawn) [Compound 17]	80	90	70	90	90	100	90	100	80	90	30	100	90	90	80	90	85
COC(=O)N(c1cc(N2CCC(OC3CC3)C2=O)c(C)cc1C)S(=O)(=O)C(F)(F)F (stereo not drawn) [Compound 16]	0	0	0	0	0	0	0	0	0	0	0	0	0	0	20	10	0
